From patent US20230339927A1, “ATR INHIBITORS AND USES THEREOF” (ANTENGENE DISCOVERY LIMITED, priority 2020, published 2023)

What was measured:
[1] = target: T1, ATR kinase (Homo sapiens, UniProt Q13535); experiment: ATR inhibition assay (mobility shift assay, FAM-RAD17 phosphorylation); type: biochemical; conditions: substrate FAM-RAD17, ATR kinase (Eurofins)
T1 construct: purchased Eurofins 14-953
Experimental: Assay 1: ATR Inhibition Assay
The assay was developed and conducted at Chempartner. All the test compounds were dissolved in 100% DMSO at concentration of 20 mM, then prepare compounds and conducted the assay as follows:
1) Transfer 80 µl20 mM compound to 40 µl of 100% DMSO in a 96-well plate.
2) Serially dilute the compound by transferring 20 µl to 60 µl of 100% DMSO in the next well and so forth for a total of 10 concentrations.
3) Add 100 µl of 100% DMSO to two empty wells for no compound control and no enzyme control in the same 96-well plate. Mark the plate as source plate.
4) Transfer 40 µl of compound from source plate to a new 384-well plate as the intermediate plate.
5) Transfer 60 nl compounds to assay plate by Echo.
No. D14JP007N) into Kinase base buffer (50 mM HEPES, pH 7.5; 0.0015% Brij-35; 0.01% Triton) to prepare 2x enzyme solution, then add 10 µl of 2x enzyme solution to each well of the 384-well assay plate, incubate at room temperature for 10 min.
8) Incubate at 28° C. for specified period of time. Add 40 µl of stop buffer (100 mM HEPES, pH 7.5; 0.015% Brij-35; 0.2% Coating Reagent #3; 50 mM EDTA) to stop reaction.
9) Collect data on Caliper. Convert conversion values to inhibition values.
wherein “max” stands for DMSO control; “min” stands for low control.
Fit the data in XLFit excel add-in version 5.4.0.8 to obtain IC50 values. Equation used is: […]
wherein X means concentration in a format not transformed to logarithms.

[2] = system: LoVo (CCL-229) human colorectal cancer cells; experiment: Tumor cell anti-proliferation assay (CTG assay); type: cell-based; conditions: 96 h incubation, CellTiter-Glo, IC50 (Y=50%)
Text: Assay 2: Tumor Cell Anti-proliferation Assay (CTG Assay)
Human colorectal cancer cells HT-29 (HTB-38) and LoVo (CCL-229) were selected for the CTG assay, the two cell lines were originally obtained from the American Type Culture Collection (ATCC). Add FBS and appropriate additives into base medium to prepare complete medium, then briefly rinse the cell layer with 0.25% (w/v) Trypsin-0.038% (w/v) EDTA solution to remove all traces of serum that contains trypsin inhibitor, after that, add appropriate volume of Trypsin-EDTA solution to flask and observe cells under an inverted microscope until cell layer is dispersed, at last, add appropriate volume of complete growth medium and aspirate cells by gently pipetting. Collect and count numbers with Vi-cell XR and adjust cell density, seed cells into 96-well opaque-walled clear bottom tissue-culture treated plates in the CO2 incubator for 20-24 hours. All the test compounds will be at 10 mM in DMSO. Compounds are then added to the cell media in 3-fold serial dilutions, the final DMSO concentration is 0.5%. Incubate plates for 96 h at 5% CO2, 37° C. Before the measurement, transfer the appropriate volume of CellTiter-Glo Buffer into the amber bottle containing CellTiter-Glo substrate to reconstitute the lyophilized enzyme/substrate mixture, mix gently, this forms the CellTiter-Glo Reagent (Promega Cat. No. G7573). Equilibrate the plate and its contents to room temperature for approximately 30 minutes, then add 100 µL of CellTiter-Glo Reagent to the assay plate, mix contents for 2 minutes on an orbital shaker to induce cell lysis, incubate at room temperature for 10 minutes to stabilize luminescent signal, at last paste the clear bottom with white back seal and record luminescence with Enspire. IC50 and GI50 values were calculated with XLFit curve fitting software using 4 Parameter Logistic Model Y=Bottom + (Top-Bottom)/(1+(IC50/X)^HillSlope).
The following Table 3 provides the IC50 (Y=50%) values for exemplary compounds of Formula (I).

T1 sequence (Q13535 whole entry): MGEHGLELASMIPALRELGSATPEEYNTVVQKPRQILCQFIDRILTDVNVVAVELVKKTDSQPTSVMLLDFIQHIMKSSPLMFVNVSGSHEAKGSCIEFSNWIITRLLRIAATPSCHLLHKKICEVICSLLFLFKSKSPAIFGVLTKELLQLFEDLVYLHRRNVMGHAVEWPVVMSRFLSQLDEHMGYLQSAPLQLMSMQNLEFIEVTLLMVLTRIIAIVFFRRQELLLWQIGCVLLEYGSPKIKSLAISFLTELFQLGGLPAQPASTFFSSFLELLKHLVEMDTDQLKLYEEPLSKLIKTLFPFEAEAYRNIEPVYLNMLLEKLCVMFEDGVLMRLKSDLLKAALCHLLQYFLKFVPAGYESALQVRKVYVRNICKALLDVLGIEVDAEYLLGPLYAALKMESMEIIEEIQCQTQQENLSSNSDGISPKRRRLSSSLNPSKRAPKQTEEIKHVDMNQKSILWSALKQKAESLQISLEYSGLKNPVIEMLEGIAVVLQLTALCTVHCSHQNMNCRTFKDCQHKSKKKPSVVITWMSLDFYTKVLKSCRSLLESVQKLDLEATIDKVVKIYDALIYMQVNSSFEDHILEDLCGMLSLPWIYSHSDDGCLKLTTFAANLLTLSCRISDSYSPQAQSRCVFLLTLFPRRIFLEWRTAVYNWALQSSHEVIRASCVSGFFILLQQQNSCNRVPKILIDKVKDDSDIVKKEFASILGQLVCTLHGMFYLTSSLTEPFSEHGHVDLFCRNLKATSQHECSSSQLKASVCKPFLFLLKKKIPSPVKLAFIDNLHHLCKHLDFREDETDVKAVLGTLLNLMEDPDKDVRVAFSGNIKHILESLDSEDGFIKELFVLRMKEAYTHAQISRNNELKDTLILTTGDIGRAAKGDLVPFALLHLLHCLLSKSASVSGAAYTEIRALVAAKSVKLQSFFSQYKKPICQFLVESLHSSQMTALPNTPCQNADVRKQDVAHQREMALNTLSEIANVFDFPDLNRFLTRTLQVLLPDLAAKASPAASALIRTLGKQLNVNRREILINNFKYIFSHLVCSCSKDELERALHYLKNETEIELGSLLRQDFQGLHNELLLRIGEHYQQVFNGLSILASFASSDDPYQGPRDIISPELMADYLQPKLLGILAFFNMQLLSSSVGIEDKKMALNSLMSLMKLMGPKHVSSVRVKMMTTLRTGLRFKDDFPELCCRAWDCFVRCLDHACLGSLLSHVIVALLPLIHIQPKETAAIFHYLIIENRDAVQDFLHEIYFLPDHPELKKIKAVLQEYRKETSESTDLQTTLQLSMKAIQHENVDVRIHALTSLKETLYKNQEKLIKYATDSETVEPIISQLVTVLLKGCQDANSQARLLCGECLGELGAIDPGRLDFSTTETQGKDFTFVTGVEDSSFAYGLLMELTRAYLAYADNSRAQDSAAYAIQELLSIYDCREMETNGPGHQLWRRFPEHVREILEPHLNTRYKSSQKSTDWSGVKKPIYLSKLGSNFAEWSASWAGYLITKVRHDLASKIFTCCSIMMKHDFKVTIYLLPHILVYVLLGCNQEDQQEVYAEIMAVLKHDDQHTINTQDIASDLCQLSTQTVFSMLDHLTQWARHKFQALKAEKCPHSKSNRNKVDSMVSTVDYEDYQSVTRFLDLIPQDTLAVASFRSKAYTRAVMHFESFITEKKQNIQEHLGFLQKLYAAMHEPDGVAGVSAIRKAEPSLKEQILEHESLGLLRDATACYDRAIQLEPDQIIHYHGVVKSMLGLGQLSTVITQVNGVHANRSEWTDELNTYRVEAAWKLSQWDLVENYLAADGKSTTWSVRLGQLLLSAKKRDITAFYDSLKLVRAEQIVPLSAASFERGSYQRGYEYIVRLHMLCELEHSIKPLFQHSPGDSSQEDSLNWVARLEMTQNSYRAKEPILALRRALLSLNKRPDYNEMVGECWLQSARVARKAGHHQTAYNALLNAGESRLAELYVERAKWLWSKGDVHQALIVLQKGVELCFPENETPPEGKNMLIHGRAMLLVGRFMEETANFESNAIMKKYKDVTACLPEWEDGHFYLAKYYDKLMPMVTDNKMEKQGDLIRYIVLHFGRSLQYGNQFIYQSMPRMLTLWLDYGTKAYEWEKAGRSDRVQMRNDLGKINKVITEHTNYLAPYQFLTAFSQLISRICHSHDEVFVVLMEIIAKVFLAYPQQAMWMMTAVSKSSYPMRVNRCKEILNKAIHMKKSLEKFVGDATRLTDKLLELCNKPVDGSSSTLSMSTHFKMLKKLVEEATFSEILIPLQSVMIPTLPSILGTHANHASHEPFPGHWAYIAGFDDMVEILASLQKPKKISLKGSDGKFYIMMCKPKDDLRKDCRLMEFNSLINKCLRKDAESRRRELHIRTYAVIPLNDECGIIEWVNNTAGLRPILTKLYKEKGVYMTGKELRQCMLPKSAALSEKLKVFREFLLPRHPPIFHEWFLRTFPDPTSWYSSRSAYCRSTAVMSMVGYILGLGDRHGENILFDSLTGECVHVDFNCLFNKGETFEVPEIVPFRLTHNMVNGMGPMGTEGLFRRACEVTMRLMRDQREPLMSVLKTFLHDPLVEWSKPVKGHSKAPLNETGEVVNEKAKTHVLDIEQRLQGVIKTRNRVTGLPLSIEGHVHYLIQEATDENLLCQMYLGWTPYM
T1 sequence (Q8WXE1 whole entry partner): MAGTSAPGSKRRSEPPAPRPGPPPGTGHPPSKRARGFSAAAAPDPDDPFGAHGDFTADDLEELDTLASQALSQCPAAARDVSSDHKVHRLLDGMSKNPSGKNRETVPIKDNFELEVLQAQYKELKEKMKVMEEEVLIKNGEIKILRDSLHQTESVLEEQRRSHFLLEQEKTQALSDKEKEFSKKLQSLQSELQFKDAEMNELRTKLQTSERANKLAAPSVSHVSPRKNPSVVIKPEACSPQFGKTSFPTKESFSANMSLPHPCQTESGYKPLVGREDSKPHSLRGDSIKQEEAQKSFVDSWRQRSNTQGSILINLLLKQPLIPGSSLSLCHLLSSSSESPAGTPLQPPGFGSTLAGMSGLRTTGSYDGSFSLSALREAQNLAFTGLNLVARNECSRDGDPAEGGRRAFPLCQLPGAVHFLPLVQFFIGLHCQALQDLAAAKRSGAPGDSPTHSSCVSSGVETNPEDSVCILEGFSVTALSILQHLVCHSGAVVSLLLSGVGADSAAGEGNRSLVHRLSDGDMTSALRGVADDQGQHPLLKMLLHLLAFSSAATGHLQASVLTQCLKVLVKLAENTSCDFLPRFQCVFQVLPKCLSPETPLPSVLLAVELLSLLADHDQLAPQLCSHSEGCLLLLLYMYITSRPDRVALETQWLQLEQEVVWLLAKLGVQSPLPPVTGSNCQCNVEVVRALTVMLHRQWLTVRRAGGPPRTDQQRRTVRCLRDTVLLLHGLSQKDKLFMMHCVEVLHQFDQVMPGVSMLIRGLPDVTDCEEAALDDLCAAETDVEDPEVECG

Row | IC50 [1] [nM] | IC50 [2] [nM] | Structure (SMILES)
1 | 22 | 517 | C[C@@H]1COCCN1c1cc(C(C)(C)S(C)(=O)=O)cc(Nc2ccn[nH]2)n1 [Compound 26, (R)-6-(3-methylmorpholino)-4-(2-(methylsulfonyl)propan-2-yl)-N-(1H-pyrazol-5-yl)pyridin-2-amine]
2 | 33.3 | 718 | Cc1cc(Nc2cc(C3(C#N)CC3)cc(N3CCOC[C@H]3C)n2)[nH]n1 [Compound 35, 1-{2-[(3-methyl-1H-pyrazol-5-yl)amino]-6-[(3R)-3-methylmorpholin-4-yl]pyridin-4-yl}cyclopropane-1-carbonitrile]
3 | 12.3 | 492 | C[C@@H]1COCCN1c1cc(C2(C#N)CCCCC2)cc(Nc2ccn[nH]2)n1 [Compound 38, 1-{2-[(3R)-3-methylmorpholin-4-yl]-6-[(1H-pyrazol-5-yl)amino]pyridin-4-yl} cyclohexane-1-carbonitrile]
4 | 2.5 | 370 | C[C@@H]1COCCN1c1cc(C2(C#N)CCCCC2)nc(Nc2ccn[nH]2)n1 [Compound 41, (R)-1-(2-((1H-pyrazol-5-yl)amino)-6-(3-methylmorpholino)pyrimidin-4-yl)cyclohexane-1-carbonitrile]
5 | 52.7 | 653 | C[C@@H]1COCCN1c1cc(C2(O)CCCCC2)cc(Nc2ccn[nH]2)n1 [Compound 43, (R)-1-(2-((1H-pyrazol-5-yl)amino)-6-(3-methylmorpholino)pyridin-4-yl) cyclohexan-1-ol]

Further lines, the molecule ahead of its results:

Row | Structure (SMILES) | IC50 [1] [nM] | IC50 [2] [nM]
6 | Cc1cc(Nc2cc(C(C)(C)C#N)cc(N3CCOC[C@H]3C)n2)[nH]n1 [Compound 25, 2-methyl-2-{2-[(3-methyl-1H-pyrazol-5-yl)amino]-6-[(3R)-3-methylmorpholin-4-yl]pyridin-4-yl}propanenitrile] | 11.8 | 309
7 | Cc1cc(Nc2cc(C(C)(C)S(C)(=O)=O)cc(N3CCOC[C@H]3C)n2)[nH]n1 [Compound 27, 4-(2-methanesulfonylpropan-2-yl)-N-(3-methyl-1H-pyrazol-5-yl)-6-[(3R)-3-methylmorpholin-4-yl]pyridin-2-amine] | 15.7 | 564
8 | C[C@@H]1COCCN1c1cc(C(C)(C)C#N)nc(Nc2ccn[nH]2)n1 [Compound 28, (R)-2-(2-((1H-pyrazol-5-yl)amino)-6-(3-methylmorpholino)pyrimidin-4-yl)-2-methylpropanenitrile] | 30.4 | 406
9 | C[C@@H]1COCCN1c1cc(C2(C#N)CCOCC2)nc(Nc2ccn[nH]2)n1 [Compound 42, (R)-4-(2-((1H-pyrazol-5-yl)amino)-6-(3-methylmorpholino)pyrimidin-4-yl) tetrahydro-2H-pyran-4-carbonitrile] | 19.7 | 640
